Experimental data reported in US11072812B2, “Substrates for covalent tethering of proteins to functional groups or solid surfaces” (PROMEGA CORPORATION, priority 2013, dated 2021).
Entries after “also recorded” stand apart in the source; their conditions may differ.

Experiments:
[1] = molecular target: T1, glucocorticoid receptor (GR) (Homo sapiens, UniProt P04150); experiment: Glucocorticoid receptor competitor assay (fluorescence polarization, Life Technology); assay type: binding; settings: dexamethasone-chloroalkane conjugates (carbamate linker = PBI-4980)
T1 construct: purchased Life Technology
T1 sequence (P04150 1-777): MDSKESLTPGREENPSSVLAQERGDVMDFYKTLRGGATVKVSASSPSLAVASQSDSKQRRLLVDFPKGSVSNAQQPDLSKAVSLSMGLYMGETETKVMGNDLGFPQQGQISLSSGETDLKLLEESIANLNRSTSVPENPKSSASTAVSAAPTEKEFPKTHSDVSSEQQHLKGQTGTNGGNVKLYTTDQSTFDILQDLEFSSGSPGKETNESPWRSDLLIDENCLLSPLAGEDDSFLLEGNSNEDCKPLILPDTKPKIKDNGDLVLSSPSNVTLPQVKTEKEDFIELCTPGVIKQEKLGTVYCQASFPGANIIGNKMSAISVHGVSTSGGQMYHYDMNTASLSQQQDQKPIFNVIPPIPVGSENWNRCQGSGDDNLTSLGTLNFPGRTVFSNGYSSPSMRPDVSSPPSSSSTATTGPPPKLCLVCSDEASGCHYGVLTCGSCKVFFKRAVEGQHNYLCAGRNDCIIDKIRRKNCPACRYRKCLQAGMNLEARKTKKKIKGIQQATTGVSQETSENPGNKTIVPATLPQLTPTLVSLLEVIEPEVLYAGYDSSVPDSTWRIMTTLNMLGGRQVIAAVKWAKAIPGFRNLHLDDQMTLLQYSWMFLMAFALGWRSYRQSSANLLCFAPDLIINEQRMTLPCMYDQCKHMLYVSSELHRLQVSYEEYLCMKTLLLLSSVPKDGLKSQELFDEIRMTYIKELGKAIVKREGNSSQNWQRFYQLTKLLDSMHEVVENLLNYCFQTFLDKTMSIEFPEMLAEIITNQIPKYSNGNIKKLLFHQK
Excerpt: c) Binding efficiency to the target glucocorticoid receptor (GR) was done using the glucocorticoid receptor competitor assay (Life Technology) as recommended by the manufacturer.

HaloTag® protein [2] = experiment: Binding efficiency/kinetics to HaloTag protein in cell lysate (chase with fluorescent HaloTag ligand, SDS-PAGE); settings: 1 μM; for binding efficiency / labeling kinetics to HaloTag protein in lysate: methotrexate-chloroalkane conjugates, 0-60 min (O4 = PBI-4849, O6 = PBI-4850)
Procedure: (§1) a) Binding efficiency to HaloTag® protein in lysate was measured by adding the methotrexate-chloroalkane conjugates to lysate from cells expressing a HaloTag® protein to a final concentration of 1 μM. Following 0-60 mins of binding, the reactions were chased with 1 μM fluorescent HaloTag® ligand. Unbound HaloTag® protein was detected through binding to the fluorescent HaloTag® ligand followed by analysis on SDS-PAGE gel and detection on a fluorescent gel scanner.
as §1, with “adding the dexamethasone-chloroalkane conjugates to” for “adding the methotrexate-chloroalkane conjugates to”, “the fluorescent HaloTag ligand followed” for “the fluorescent HaloTag® ligand followed”
a) Binding kinetics to HaloTag® protein in cell lysate was measured by adding the modified BIRB796-chloroalkane conjugates to lysate from cells expressing a HaloTag® protein at a final concentration of 1 μM. After 0-60 min of binding, the reactions were chased with 1 μM fluorescent HaloTag® ligand (Promega Corporation). Unbound HaloTag® protein was detected through binding to the fluorescent HaloTag® ligand followed by analysis on SDS-PAGE and detection on a fluorescent gel scanner.
Following 0-60 min of binding, the reactions were chased with 1 μM fluorescent HaloTag® ligand. Unbound HaloTag® protein was detected through binding to the fluorescent HaloTag® ligand followed by analysis on SDS-PAGE and detection on a fluorescent gel scanner.
a) Binding kinetics to HaloTag® protein in cell lysate was measured by adding the dasatinib-chloroalkane conjugates to lysate (final concentration of 1 μM) from cells expressing a HaloTag® protein. Following 0-60 min of binding, the reactions were chased with 1 μM fluorescent HaloTag® ligand. Unbound HaloTag® protein was detected through binding to the fluorescent HaloTag® ligand followed by analysis on SDS-PAGE and detection on a fluorescent gel scanner.

HaloTag® protein [3] = experiment: Binding efficiency/kinetics to HaloTag protein in cells (cell permeability; chase with fluorescent HaloTag ligand, SDS-PAGE); assay type: cell-based; settings: 10 μM
Procedure: b) Binding efficiency to HaloTag® protein in cells was measured by adding the methotrexate-chloroalkane conjugates to cells expressing a HaloTag® protein to a final concentration of 10 μM. Following 0-120 mins of binding, the reactions were chased with 5 μM fluorescent HaloTag® ligand. Unbound HaloTag® protein was detected through binding to the fluorescent HaloTag® ligand followed by cell lysis, analysis on a SDS-PAGE gel and detection on a fluorescent gel scanner.
b) Binding efficiency to HaloTag® protein in cells was measured by adding the dexamethasone-chloroalkane conjugates to cells expressing a HaloTag® protein to a final concentration of 10 μM. Following 0-60 mins of binding, the reaction was chased with 5 μM fluorescent HaloTag ligand. Unbound HaloTag® protein was detected through binding to the fluorescent HaloTag® ligand followed by cell lysis, analysis on SDS-PAGE gel and detection on a fluorescent gel scanner.
b) Binding kinetics to HaloTag® protein in cells was measured by adding the modified BIRB796-chloroalkane conjugates to cells expressing a HaloTag® protein at a final concentration of 10 μM. Following 0-60 min of binding, the reactions were chased with 5 μM fluorescent HaloTag® ligand. Unbound HaloTag® protein was detected through binding to the fluorescent HaloTag® ligand followed by cell lysis, analysis on SDS-PAGE and detection on a fluorescent gel scanner.
Following 0-180 min of binding, the reactions were chased with 5 μM fluorescent HaloTag® ligand. Unbound HaloTag® protein was detected through binding to the fluorescent HaloTag® ligand followed by cell lysis, analysis on SDS-PAGE and detection on a fluorescent gel scanner.
b) Binding kinetics to HaloTag® protein in cells was measured by adding the dasatinib-chloroalkane conjugates (final concentration of 10 μM) to cells expressing a HaloTag protein which localized to the cytoplasm or the nucleus. Following 0-90 min of binding, the reactions were chased with 5 μM fluorescent HaloTag® ligand. Unbound HaloTag® protein was detected through binding to the fluorescent HaloTag® ligand followed by cell lysis, analysis on SDS-PAGE and detection on a fluorescent gel scanner.

NanoLuc:GR fusion = molecular target: T2, NanoLuc:GR fusion (Homo sapiens, UniProt P04150); experiment: Pull-down of NanoLuc:GR fusion from live HEK293 cells onto HaloTag protein beads; assay type: cell-based; settings: HEK293, 10 μM conjugate, 2 h; beads 45 min; release with 150 μM dexamethasone; PBI-4980 compared with PBI-4025
T2 construct: expressed in transfected cells; host or cells: HEK293
T2 sequence (P04150 1-777): T1 sequence (P04150 1-777)
Procedure: HEK293 cells were plated and transfected using PEI with plasmid DNA encoding NanoLuc:GR fusion in wells of a 96-well plate. The DNA was diluted 1:50 with a promoterless carrier DNA plasmid (pCI neo) to a final concentration of 80 ng total DNA per well. Twenty-four hours post-transfection, cells were serum starved for additional 24 hours then incubated with a final concentration of 10 μM PBI-4980 or PBI-4025 while control cells were not treated with the conjugated drug. Following equilibration binding of 2 h, the media was removed, cells quickly washed with PBS and lysed in detergent-based lysis buffer for 10 min. Cell lysates were than transferred to wells of a 96-well plate containing 0.5 μl settled paramagnetic HaloTag® protein beads and incubated with shaking for 45 min. Following binding the unbound fraction was removed, the HaloTag® protein paramagnetic beads were washed 3×, and the captured NanoLuc fusion was specifically released from the beads by competition with 150 μM unconjugated Dexamethasone for 60 min. The released NanoLuc:GR (+PBI-4980 or +PBI-4025) and control samples were detected by using the NanoGlo® assay reagent (Promega Corp).

[4] = molecular target: T3, NanoLuc-DHFR fusion protein (Homo sapiens, UniProt P00374); experiment: Pull-down of NanoLuc-DHFR fusion from living HEK293 cells onto HaloTag protein beads; assay type: cell-based; settings: HEK293, 10 uM conjugate, 2 h; beads 45 min; release with 150 μM methotrexate
T3 construct: expressed in transfected cells; host or cells: HEK293
T3 sequence (P00374 1-187): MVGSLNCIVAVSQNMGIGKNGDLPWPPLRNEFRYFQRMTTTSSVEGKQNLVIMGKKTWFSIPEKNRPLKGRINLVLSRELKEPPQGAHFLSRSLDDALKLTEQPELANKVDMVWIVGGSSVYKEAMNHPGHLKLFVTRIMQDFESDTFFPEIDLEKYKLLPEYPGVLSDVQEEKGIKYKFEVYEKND
Procedure: HEK293 cells were plated and transfected using PEI with plasmid DNA encoding a NANOLUC-DHFR fusion in wells of a 96-well plate. The DNA was diluted 1:50 with a promoterless carrier DNA plasmid (pCI) to a final concentration of 80 ng total DNA per well. Twenty-four hours post-transfection, cells were serum starved for additional 24 hours and then treated with […] 10 uM PBI-4848 or PBI-5015 while control cells were not treated with the conjugated drug. Following equilibration binding of 2 h, the media was removed, and the cells quickly washed with PBS and lysed in detergent-based lysis buffer for 10 min. Cell lysates were then transferred to wells of a 96-well plate containing 0.5 μl settled paramagnetic HALOTAG protein beads and incubated with shaking for 45 min. Following binding, the unbound fraction was removed, the HALOTAG protein paramagnetic beads washed, 150 μM unconjugated methotrexate added, and the captured NANOLUC:DHFR specifically released from the beads by competition with the unconjugated methotrexate for 60 min. The released NANOLUC:DHFR (+PBI-5015 or +PBI-4848) and control samples were detected by NANOGLO luciferase detection reagent.

[5] = molecular target: T4, ABL-NanoLuc® fusion protein (Homo sapiens, UniProt P00519); experiment: Pull-down of ABL-NanoLuc fusion from live HEK293 cells onto HaloTag protein beads; assay type: cell-based; settings: HEK293, 20 μM conjugate, 2 h; beads 15 min; release with 400 μM dasatinib
T4 construct: expressed in transfected cells; host or cells: HEK293
T4 sequence (P00519 whole entry, the tested form may be a part): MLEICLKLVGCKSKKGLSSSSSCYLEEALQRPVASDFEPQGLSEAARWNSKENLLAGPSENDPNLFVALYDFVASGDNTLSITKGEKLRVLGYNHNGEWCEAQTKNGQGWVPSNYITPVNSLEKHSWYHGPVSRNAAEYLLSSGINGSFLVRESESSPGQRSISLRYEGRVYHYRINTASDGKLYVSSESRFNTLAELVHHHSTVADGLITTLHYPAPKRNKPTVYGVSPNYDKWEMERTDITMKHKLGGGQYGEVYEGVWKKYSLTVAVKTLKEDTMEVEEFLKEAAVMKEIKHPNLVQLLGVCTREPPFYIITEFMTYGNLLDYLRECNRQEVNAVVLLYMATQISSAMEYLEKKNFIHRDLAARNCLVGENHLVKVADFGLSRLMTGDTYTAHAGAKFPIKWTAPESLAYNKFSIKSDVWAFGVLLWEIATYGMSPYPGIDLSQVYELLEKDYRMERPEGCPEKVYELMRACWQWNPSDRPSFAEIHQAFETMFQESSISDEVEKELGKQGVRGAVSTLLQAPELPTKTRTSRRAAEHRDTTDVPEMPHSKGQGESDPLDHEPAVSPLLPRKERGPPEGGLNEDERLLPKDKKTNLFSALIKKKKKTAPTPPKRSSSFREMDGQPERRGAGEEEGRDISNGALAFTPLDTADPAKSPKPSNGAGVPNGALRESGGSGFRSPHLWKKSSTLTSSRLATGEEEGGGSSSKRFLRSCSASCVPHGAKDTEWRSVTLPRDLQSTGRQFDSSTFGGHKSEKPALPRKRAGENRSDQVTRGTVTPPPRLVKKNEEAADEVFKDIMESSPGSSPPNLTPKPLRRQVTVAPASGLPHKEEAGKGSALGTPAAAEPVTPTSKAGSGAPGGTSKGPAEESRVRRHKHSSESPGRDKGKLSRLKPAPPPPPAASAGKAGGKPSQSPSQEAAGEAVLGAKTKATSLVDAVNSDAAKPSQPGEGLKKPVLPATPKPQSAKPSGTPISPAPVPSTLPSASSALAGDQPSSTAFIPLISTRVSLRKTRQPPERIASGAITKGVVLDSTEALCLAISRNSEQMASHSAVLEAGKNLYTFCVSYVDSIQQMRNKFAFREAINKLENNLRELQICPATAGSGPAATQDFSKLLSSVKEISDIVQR
Procedure: c) The 2 carbamate linkers were also compared for their ability to specifically pull down a ABL-NanoLuc® fusion protein from live cells. HEK293 cells were transfected using PEI with plasmid DNA encoding ABL-NanoLuc® fusion (transfection was done in a 96-well format). The DNA was diluted 1:100 with a promoterless carrier DNA plasmid (pCI-neo; Promega Corporation) to a final concentration of 80 ng total DNA per well. Twenty-four hours post-transfection, cells were incubated with a final concentration of 20 μM PBI-5270 or PBI-5590 while control cells were not treated with the conjugated drug. Following equilibration binding of 2 h, the media was removed; cells were quickly washed with PBS; and cells lysed in detergent-based lysis buffer for 10 min. Cell lysates were then transferred to a 96-well plate containing 0.5 μl settled paramagnetic HaloTag® protein beads and incubated with shaking for 15 min. Following binding, the unbound fraction was removed, the HaloTag® protein paramagnetic beads were washed 3×, and the captured ABL-NanoLuc® fusion was specifically released from the beads by competition with 400 μM unconjugated dasatinib for 15 min. The released ABL-NanoLuc® fusion in the experiment (+PBI-5270 or +PBI-5590) and control samples was detected by NanoGlo® reagent.

[6] = methotrexate-chloroalkane conjugates, 0-120 min (O4 = PBI-4849, O6 = PBI-4850)

Question: Which “affinity / binding efficiency to glucocorticoid receptor” value (from here on “affinity / binding efficiency”) [1] does the source give for `C[C@@H]1CC2[C@@H]3CCC4=CC(=O)C=C[C@]4(C)[C@@]3(F)[C@@H](O)C[C@]2(C)[C@@]1(O)C(=O)NCCOCCOCCOCCOCCC(=O)NCCOCCOCCCCCCCl` (some centres unmarked) [PBI-4025] here?
Answer: Its value is “highest affinity; also recorded: best binding efficiency; also recorded: higher affinity”.

Question: How did the “binding kinetics to HaloTag protein in cell lysate” value (HaloTag® protein [2]; modified BIRB796-chloroalkane conjugates, 0-60 min) turn out when `CC(C)(C)c1cc(NC(=O)Nc2ccccc2)n(-c2cccc(CNC(=O)CNC(=O)CCC(=O)NCCOCCOCCCCCCCl)c2)n1` [PBI-4832, BIRB* O2 Chloroalkane] was run?
Answer: Its value is “fast binding kinetics”.

Question: What does the source list for `CN(Cc1cnc2nc(N)nc(N)c2n1)c1ccc(C(=O)NC(CCC(=O)NCCOCCOCCCCCCCl)C(=O)O)cc1` (centres unmarked) [PBI-4848, Methotrexate-O2 Chloroalkane]?
Answer: binding efficiency / labeling kinetics to HaloTag protein in lysate (HaloTag® protein [2]): fast labeling kinetics; cell permeability/binding efficiency to HaloTag protein in cells (HaloTag® protein [3]; [6]): best cell permeability and binding efficiency; also recorded: higher cell permeability

Question: Which “binding kinetics to HaloTag protein in lysate” value (HaloTag® protein [2]; dexamethasone-chloroalkane conjugates, 0-60 min) does the source give for `C[C@@H]1CC2[C@@H]3CCC4=CC(=O)C=C[C@]4(C)[C@@]3(F)[C@@H](O)C[C@]2(C)[C@@]1(O)C(=O)NCCCCCNC(=O)OCCOCCOCCOC(=O)NCCOCCOCCCCCCCl` (some centres unmarked) [PBI-4980, Dexamethasone Carbamate Chloroalkane] here?
Answer: The value was “faster binding kinetics”.

Question: What about the “efficiency of Nluc:GR fusion pull down” value (NanoLuc:GR fusion) of the same compound?
Answer: Its value is “significantly higher”.

Question: And the “cell permeability/binding efficiency to HaloTag protein in cells” value (HaloTag® protein [3]; dexamethasone-chloroalkane conjugates, 0-60 min (O4 = PBI-4026, O6 = PBI-4025))?
Answer: The value was “best cell permeability/binding efficiency”.

Question: And the “affinity / binding efficiency” value [1]?
Answer: Its value is “best binding efficiency”.

Question: And the “affinity / binding efficiency” value ([1]; listed as carbamate linker)?
Answer: The value was “highest affinity”.

Question: `CN(Cc1cnc2nc(N)nc(N)c2n1)c1ccc(C(=O)NC(CCC(=O)NCCCCCNC(=O)OCCOCCOCCOC(=O)NCCOCCOCCCCCCCl)C(=O)O)cc1` (centres unmarked) [PBI-5015, Methotrexate Carbamate Chloroalkane] was tested. Which “binding efficiency / labeling kinetics to HaloTag protein in lysate” value (HaloTag® protein [2]) did it give?
Answer: Its value is “fast labeling kinetics”.

Question: And the “cell permeability/binding efficiency to HaloTag protein in cells” value (HaloTag® protein [3]; [6])?
Answer: The value was “good cell permeability and binding efficiency; also recorded: best cell permeability and binding efficiency”.

Question: What about the “pull-down of Nluc:DHFR fusion from living cells” value [4] of the same compound?
Answer: Its value is “efficiently pulled down”.

Question: How did the “pull-down of ABL:NanoLuc fusion from live cells” value [5] turn out when `Cc1nc(Nc2ncc(C(=O)Nc3c(C)cccc3Cl)s2)cc(N2CCN(CCOC(=O)NCCCCCNC(=O)OCCOCCOCCOC(=O)NCCOCCOCCCCCCCl)CC2)n1` [PBI-5270, Dasatinib Bis-Carbamate] was run?
Answer: The value was “pulled down efficiently”.

Question: `Cc1nc(Nc2ncc(C(=O)Nc3c(C)cccc3Cl)s2)cc(N2CCN(CCOC(=O)NCCOCCOCCCCCCCl)CC2)n1` [PBI-5590, Dasatinib Monocarbamate] was tested. Which “binding kinetics to HaloTag protein in cell lysate” value (HaloTag® protein [2]; dasatinib-chloroalkane conjugates, 0-60 min, compared with PBI-5270) did it give?
Answer: Its value is “faster binding kinetics”.
